From patent publication US11485741B2, “Macrocyclic toll-like receptor 7 (TLR7) agonists” (BRISTOL-MYERS SQUIBB COMPANY, priority 2018, dated 2022)
Where two headings read alike, the source gives them in different places.

Experiments:
human TLR7 = target: T1, human TLR7 (Homo sapiens, UniProt Q9NYK1); experiment: HEK-Blue TLR7 reporter assay (SEAP reporter); type: cell-based; conditions: HEK-Blue TLR7 cells, 18 h treatment, SEAP readout; average if more than one assay; read-out: TLR7 Agonism HEK Blue ™ Assay EC50
T1 construct: host or cells: HEK-Blue TLR7 cells (engineered human embryonic kidney cells)
T1 sequence (Q9NYK1 27-1049): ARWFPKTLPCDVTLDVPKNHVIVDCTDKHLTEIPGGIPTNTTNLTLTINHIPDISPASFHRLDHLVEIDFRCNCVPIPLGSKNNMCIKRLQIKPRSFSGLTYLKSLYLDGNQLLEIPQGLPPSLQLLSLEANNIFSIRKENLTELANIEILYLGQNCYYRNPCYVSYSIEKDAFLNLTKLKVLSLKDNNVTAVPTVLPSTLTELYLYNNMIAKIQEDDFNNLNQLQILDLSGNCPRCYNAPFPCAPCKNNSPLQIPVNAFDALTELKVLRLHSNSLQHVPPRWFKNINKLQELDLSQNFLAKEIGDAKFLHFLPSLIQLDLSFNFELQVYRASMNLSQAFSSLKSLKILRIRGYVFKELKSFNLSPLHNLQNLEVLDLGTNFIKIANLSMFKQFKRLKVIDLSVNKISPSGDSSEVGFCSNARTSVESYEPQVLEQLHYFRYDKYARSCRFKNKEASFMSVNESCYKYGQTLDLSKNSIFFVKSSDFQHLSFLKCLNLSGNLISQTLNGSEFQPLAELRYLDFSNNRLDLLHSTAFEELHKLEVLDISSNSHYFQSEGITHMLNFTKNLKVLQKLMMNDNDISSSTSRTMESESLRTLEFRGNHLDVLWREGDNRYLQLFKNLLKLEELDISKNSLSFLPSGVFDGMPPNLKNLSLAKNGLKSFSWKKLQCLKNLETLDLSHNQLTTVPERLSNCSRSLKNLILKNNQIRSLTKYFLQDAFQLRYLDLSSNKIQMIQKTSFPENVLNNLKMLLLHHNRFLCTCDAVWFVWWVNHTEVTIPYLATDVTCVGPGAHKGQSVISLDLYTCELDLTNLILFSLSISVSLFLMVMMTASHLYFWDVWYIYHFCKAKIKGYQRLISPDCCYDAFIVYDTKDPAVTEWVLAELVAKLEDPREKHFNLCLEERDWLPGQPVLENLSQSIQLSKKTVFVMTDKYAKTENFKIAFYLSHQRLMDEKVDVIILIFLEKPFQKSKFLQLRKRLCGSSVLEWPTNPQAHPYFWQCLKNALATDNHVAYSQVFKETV
Text: Table A presents biological activity data for compounds disclosed herein. One set of data relates TLR7 agonism activity using the HEK-Blue™ TLR7 reporter assay, as described in Example 11 hereinbelow. Another set of data relates to the induction of interleukin 6 (IL-6), a cytokine that plays an important role in the TLR7 pathway. […] In some instances, more that one TLR7 agonism or IL-6 induction assay was made; if so, the reported value is an average.
This example describes a method for assaying TLR7 agonist activity of the compounds disclosed in this specification.
HEK-Blue™ TLR7 cells were added to each well of a 384-well tissue-culture plate (15,000 cells per well) and incubated 16-18 h at 37° C., 5% CO2. Compounds (100 nl) were dispensed into wells containing the HEK-Blue™ TLR cells and the treated cells were incubated at 37° C., 5% CO2. After 18 h treatment ten microliters of freshly-prepared Quanti-Blue™ reagent (Invivogen) was added to each well, incubated for 30 min (37° C., 5% CO2) and SEAP levels measured using an Envision plate reader (OD=620 nm). […] EC50's can be determined with software such as Graphpad Prism™.

interleukin 6 (IL-6) = experiment: Interleukin 6 induction assay in human whole blood (AlphaLISA); type: cell-based; conditions: 20 h at 37° C., 100% set by resiquimod reference at 10 μM, average if more than one assay, read-out: IL-6 Induction EC50 (nM) (normalized 10 μM)
Text: Table A presents biological activity data for compounds disclosed herein. One set of data relates TLR7 agonism activity using the HEK-Blue™ TLR7 reporter assay, as described in Example 11 hereinbelow. Another set of data relates to the induction of interleukin 6 (IL-6), a cytokine that plays an important role in the TLR7 pathway. […] In some instances, more that one TLR7 agonism or IL-6 induction assay was made; if so, the reported value is an average. This example describes a method for assaying interleukin 6 (IL 6) induction by compounds disclosed in this specification. Compounds suspended in DMSO were transferred to individual wells of a Matrix Technologies clear, V-bottom 384-well plate using ECHO acoustic liquid handling technology (25 nL per well). Human whole-blood samples (25 uL) were added to each well using a CyBio FeliX liquid handling instrument and the plate was shaken on a plate shaker for three minutes before incubating the reaction mixtures at 37° C. for 20 h. Basel RPMI 1640 medium (supplemented with L-glutamine) was then added to each well (25 uL per well) prior to liberating plasma from each sample by centrifugation (450×g, 5 min, ambient temperature). Treated plasma samples (3 uL) were subsequently transferred to individual wells of a white, shallow, 384-well ProxiPlate (PerkinElmer) using the FeliX liquid handling instrument and their IL6 levels were measured using AlphaLISA technology as described by the manufacturer (PerkinElmer).

Question: With `Nc1nc2nc3c1nc(O)n3Cc1ccc(-c3ccc(CNC4CCOCC4)cc3)c(c1)C/C=C\CCO2` [IIb-34] as the molecule, how does the EC50 (human TLR7) read?
Answer: 0.12 nM

Question: And the EC50 (interleukin 6 (IL-6); Homo sapiens, 20 h)?
Answer: 0.76 nM

Question: For `Nc1nc2nc3c1nc(O)n3Cc1ccc(OCC(=O)NC3CNC3)c(c1)C/C=C\CCO2` [IIe-01], which EC50 (human TLR7) is on record?
Answer: 5.3 nM

Question: What about the EC50 (interleukin 6 (IL-6); Homo sapiens, 20 h) of the same molecule?
Answer: 40 nM

Question: `Nc1nc2nc3c1nc(O)n3Cc1cc(cc(Oc3ccc(CNC4CCC4)cc3)c1)C/C=C\CCO2` [IIa-13] was tested. Which EC50 (human TLR7) did it give?
Answer: 0.94 nM

Question: And the EC50 (interleukin 6 (IL-6); Homo sapiens, 20 h)?
Answer: 13 nM

Question: For `CCOCc1nc2c(N)nc3ccccc3c2n1CC(C)(C)O` [Resiquimod, resiquimod, reference compound], which EC50 (interleukin 6 (IL-6); Homo sapiens, 20 h) is on record?
Answer: 350 nM

Question: `Nc1nc2nc3c1nc(O)n3Cc1ccc(-c3cnn(CC(=O)NC4CNC4)c3)c(c1)C/C=C/CCO2` [IIb-38] was tested. Which EC50 (human TLR7) did it give?
Answer: 22 nM

Question: And the EC50 (interleukin 6 (IL-6); Homo sapiens, 20 h)?
Answer: 1000 nM

Question: With `Nc1nc2nc3c1nc(O)n3Cc1ccc(-c3cnn(CCNC4CCC4)c3)c(c1)C/C=C/CCO2` [IIb-07] as the molecule, how does the EC50 (human TLR7) read?
Answer: 0.22 nM

Question: And the EC50 (interleukin 6 (IL-6); Homo sapiens, 20 h)?
Answer: 1.6 nM

Question: Which EC50 (human TLR7) does the source give for `Nc1nc2nc3c1nc(O)n3Cc1ccc(-c3ccc(CNC4CC(F)(F)C4)cc3)c(c1)C/C=C/CCO2` [IIb-25] here?
Answer: 1.5 nM

Question: What about the EC50 (interleukin 6 (IL-6); Homo sapiens, 20 h) of the same molecule?
Answer: 0.81 nM

Question: `Nc1nc2nc3c1nc(O)n3Cc1ccc(Oc3ccc(CNC4CC4)cc3)c(c1)C/C=C/CCO2` [IIa-02] was tested. Which EC50 (human TLR7) did it give?
Answer: 4 nM

Question: What about the EC50 (interleukin 6 (IL-6); Homo sapiens, 20 h) of the same molecule?
Answer: 5.2 nM

Question: `Nc1nc2nc3c1nc(O)n3Cc1ccc(-c3cnn(C4CCNCC4)c3)c(c1)C/C=C/CCO2` [IIb-36] was tested. Which EC50 (human TLR7) did it give?
Answer: 1 nM

Question: With `CC1(NCc2ccc(-c3ccc4cc3C/C=C/CCOc3nc(N)c5nc(O)n(c5n3)C4)cc2)CCC1` [IIb-26] as the molecule, how does the EC50 (human TLR7) read?
Answer: 0.26 nM

Question: What about the EC50 (interleukin 6 (IL-6); Homo sapiens, 20 h) of the same molecule?
Answer: 1 nM

Question: With `Nc1nc2nc3c1nc(O)n3Cc1ccc(Oc3cccc(CNC4CC4)c3)c(c1)C/C=C\CCO2` [IIa-05] as the molecule, how does the EC50 (human TLR7) read?
Answer: 7.2 nM

Question: What about the EC50 (interleukin 6 (IL-6); Homo sapiens, 20 h) of the same molecule?
Answer: 18 nM

Question: With `Nc1nc2nc3c1nc(O)n3Cc1cc(cc(Oc3ccc(CNC4CCC4)cc3)c1)C/C=C/CCO2` [IIa-17] as the molecule, how does the EC50 (human TLR7) read?
Answer: 8.5 nM

Question: What about the EC50 (interleukin 6 (IL-6); Homo sapiens, 20 h) of the same molecule?
Answer: 44 nM

Question: How did the EC50 (human TLR7) turn out when `Nc1nc2nc3c1nc(O)n3Cc1ccc(-c3cnn(CCNC4CC4)c3)c(c1)C/C=C/CCO2` [IIb-01] was run?
Answer: 0.67 nM

Question: And the EC50 (interleukin 6 (IL-6); Homo sapiens, 20 h)?
Answer: 42 nM

Question: How did the EC50 (human TLR7) turn out when `Nc1nc2nc3c1nc(O)n3Cc1ccc(-c3cc(CNC4CCC4)[nH]n3)c(c1)C/C=C/CCO2` [IIb-14] was run?
Answer: 3 nM

Question: What about the EC50 (interleukin 6 (IL-6); Homo sapiens, 20 h) of the same molecule?
Answer: 5.3 nM

Question: For `Nc1nc2nc3c1nc(O)n3Cc1ccc(-c3ccc(CNC4CC(O)C4)cc3)c(c1)C/C=C/CCO2` (centres unmarked) [IIb-24], which EC50 (human TLR7) is on record?
Answer: 0.68 nM

Question: And the EC50 (interleukin 6 (IL-6))?
Answer: 2.7 nM

Question: Which results are given for `Nc1nc2nc3c1nc(O)n3Cc1cc(cc(Oc3cccc(CNC4CCC4)c3)c1)C/C=C/CCO2` [IIa-14]?
Answer: EC50 (human TLR7): 19 nM; EC50 (interleukin 6 (IL-6); Homo sapiens, 20 h): 140 nM

Question: What does the source list for `Nc1nc2nc3c1nc(O)n3Cc1ccc(-c3cccc(C(=O)NC4CNC4)c3)c(c1)C/C=C/CCO2` [IIb-31]?
Answer: EC50 (human TLR7): 6.8 nM; EC50 (interleukin 6 (IL-6); Homo sapiens, 20 h): 28 nM

Question: How did the EC50 (human TLR7) turn out when `Nc1nc2nc3c1nc(O)n3Cc1ccc(-c3cnc(CNC4CCC4)s3)c(c1)C/C=C/CCO2` [IIb-13] was run?
Answer: 0.24 nM

Question: And the EC50 (interleukin 6 (IL-6); Homo sapiens, 20 h)?
Answer: 4.3 nM

Question: `Nc1nc2nc3c1nc(O)n3Cc1ccc(-c3cnn(CCNC4CCC4)c3)c(c1)CCCCCO2` [IIb-08] was tested. Which EC50 (human TLR7) did it give?
Answer: 1.7 nM

Question: What about the EC50 (interleukin 6 (IL-6); Homo sapiens, 20 h) of the same molecule?
Answer: 6.2 nM

Question: How did the EC50 (human TLR7) turn out when `Nc1nc2nc3c1nc(O)n3Cc1ccc(-c3cnn(C4CNC4)c3)c(c1)C/C=C/CCO2` [IIb-35] was run?
Answer: 1.5 nM

Question: Which EC50 (human TLR7) does the source give for `Nc1nc2nc3c1nc(O)n3Cc1ccc(-c3cnn(CCNC4CC4)c3)c(c1)C/C=C\CCO2` [IIb-02] here?
Answer: 0.35 nM

Question: And the EC50 (interleukin 6 (IL-6); Homo sapiens, 20 h)?
Answer: 1.3 nM

Question: With `Nc1nc2nc3c1nc(O)n3Cc1ccc(Oc3ccc(CNC4CC4)cc3)c(c1)CCCCCO2` [IIa-11] as the molecule, how does the EC50 (human TLR7) read?
Answer: 6.6 nM

Question: And the EC50 (interleukin 6 (IL-6); Homo sapiens, 20 h)?
Answer: 5.5 nM

Question: How did the EC50 (human TLR7) turn out when `Nc1nc2nc3c1nc(O)n3Cc1cccc(c1)C/C=C/CCO2` [Compound B1, reference compound] was run?
Answer: 210 nM

Question: How did the EC50 (human TLR7) turn out when `Nc1nc2nc3c1nc(O)n3Cc1ccc(-c3ccc(CNC4COC4)cc3)c(c1)C/C=C\CCO2` [IIb-33] was run?
Answer: 0.42 nM

Question: For `Nc1nc2nc3c1nc(O)n3Cc1ccc(-c3cnn(CC(=O)NC4CNC4)c3)c(c1)C/C=C\CCO2` [IIb-39], which EC50 (human TLR7) is on record?
Answer: 1.6 nM

Question: Which EC50 (human TLR7) does the source give for `Nc1nc2nc3c1nc(O)n3Cc1cccc(c1)C/C=C\CCO2` [Compound B2, reference compound] here?
Answer: 33 nM

Question: How did the EC50 (human TLR7) turn out when `Nc1nc2nc3c1nc(O)n3Cc1ccc(Oc3ccc(CO)cc3)c(c1)C/C=C/CCO2` [IIa-01] was run?
Answer: 51 nM

Question: Which EC50 (human TLR7) does the source give for `Nc1nc2nc3c1nc(O)n3Cc1ccc(O)c(c1)CCCCCO2` [Compound B5, reference compound] here?
Answer: 580 nM
